According to BindingDB's records for doi:10.1021/jm040209d (University of Illinois At Urbana-Champaign, 2005):

target: Farnesyl diphosphate synthase (Leishmania major); assay: Binding affinity towards Farnesyl diphosphate synthase from leishmania major

Row | SMILES | Ki
1 | Cc1ccc[n+](CC(O)(P(=O)([O-])O)P(=O)(O)O)c1 (configuration not stated) [hydrogen 1-hydroxy-2-(3-methylpyridinium-1-yl)-1-phosphonoethylphosphonate] | 38 nM
2 | CCCCc1ccc[n+](CC(O)(P(=O)([O-])O)P(=O)(O)O)c1 (configuration not stated) [hydrogen 2-(3-butylpyridinium-1-yl)-1-hydroxy-1-phosphonoethylphosphonate] | 20 nM
3 | Cc1cccc(Cc2ccc[n+](CC(O)(P(=O)([O-])O)P(=O)(O)O)c2)c1 (configuration not stated) [hydrogen 1-hydroxy-2-[3-(3-methylbenzyl)pyridinium-1-yl]-1-phosphonoethylphosphonate] | 70 nM
4 | COc1ccc[n+](CC(O)(P(=O)([O-])O)P(=O)(O)O)c1 (configuration not stated) [hydrogen 1-hydroxy-2-(3-methoxypyridinium-1-yl)-1-phosphonoethylphosphonate] | 30 nM
5 | O=P([O-])(O)C(O)(C[n+]1cccc(-c2ccc(O)cc2)c1)P(=O)(O)O (configuration not stated) [sodium hydrogen 1-hydroxy-2-[3-(4-oxidophenyl)pyridinium-1-yl]-1-phosphonoethylphosphonate] | 75 nM
6 | O=P([O-])(O)C(O)(C[n+]1cccc(Cc2ccccc2)c1)P(=O)(O)O (configuration not stated) [hydrogen 2-(3-benzylpyridinium-1-yl)-1-hydroxy-1-phosphonoethylphosphonate] | 160 nM
7 | O=P([O-])(O)C(O)(C[n+]1cccc(F)c1)P(=O)(O)O (configuration not stated) [hydrogen 2-(3-fluoropyridinium-1-yl)-1-hydroxy-1-phosphonoethylphosphonate] | 50 nM
